Measurements: ChEMBL document CHEMBL4196200 (J Med Chem, 2018)
Values after ≈ are worked out from the molar mass of the structure shown. Active and inactive are the calls of the source. No cut-off for these calls is given here.

What was measured:
Vasopressin V2 receptor [1] = target: T1, Vasopressin V2 receptor (Homo sapiens, UniProt P30518); test: Displacement of DY647 from SNAP-tagged V2 receptor (unknown origin) expressed in HEK293 cells by TR-FRET assay; type: cell-based
[2] = target: T2, Oxytocin receptor (Homo sapiens) (UniProt P30559); test: Agonist activity at human OTR expressed in HEK cells assessed as increase in intracellular calcium flux incubated for 45 mins by Indo1-AM dye based fluorescence assay relative to OT; type: functional, cell-based
T2 sequence (whole entry): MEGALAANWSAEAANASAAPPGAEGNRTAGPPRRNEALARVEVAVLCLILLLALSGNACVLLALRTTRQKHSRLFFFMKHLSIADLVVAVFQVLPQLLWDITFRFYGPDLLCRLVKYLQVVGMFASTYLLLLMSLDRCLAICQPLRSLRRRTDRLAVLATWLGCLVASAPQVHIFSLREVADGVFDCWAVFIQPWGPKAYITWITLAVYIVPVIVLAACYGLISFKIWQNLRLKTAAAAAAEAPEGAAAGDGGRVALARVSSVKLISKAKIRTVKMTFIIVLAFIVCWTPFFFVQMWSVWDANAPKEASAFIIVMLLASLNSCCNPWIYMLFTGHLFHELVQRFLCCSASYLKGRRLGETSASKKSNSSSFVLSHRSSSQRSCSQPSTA

Mus musculus [3] = test: Improvement in social interaction in Oprm1-/- mouse model of autism spectrum disorders assessed as restoration of time spent in nose contacts at 10 mg/kg, ip pre-treated before open-field test for 10 mins; type: functional, organism-based
Mus musculus [4] = test: Improvement in social interaction in Oprm1-/- mouse model of autism spectrum disorders assessed as restoration of number of following episodes at 10 mg/kg, ip pre-treated before open-field test for 10 mins; type: functional, organism-based
Mus musculus [5] = test: Effect on social interaction in Oprm1+/+ mouse model of autism spectrum disorders assessed as number of nose contacts at 10 mg/kg, ip pre-treated before open-field test for 10 mins; type: ADME, organism-based; conditions: in vivo
Mus musculus [6] = test: Effect on social interaction in Oprm1+/+ mouse model of autism spectrum disorders assessed as increase in number of following episodes at 10 mg/kg, ip pre-treated before open-field test for 10 mins; type: ADME, organism-based; conditions: in vivo
Mus musculus [7] = test: Improvement in social interaction in Oprm1-/- mouse model of autism spectrum disorders assessed as restoration of time spent in nose contacts at 20 mg/kg, ip pre-treated before open-field test for 10 mins; type: functional, organism-based
Mus musculus [8] = test: Improvement in social interaction in Oprm1-/- mouse model of autism spectrum disorders assessed as restoration of mean duration of nose contacts at 20 mg/kg, ip pre-treated before open-field test for 10 mins; type: functional, organism-based
Mus musculus [9] = test: Improvement in social interaction in Oprm1-/- mouse model of autism spectrum disorders assessed as suppression of grooming episodes occurring after social contact at 20 mg/kg, ip pre-treated before open-field test for 10 mins; type: functional, organism-based
Mus musculus [10] = test: Effect on social interaction in Oprm1+/+ mouse model of autism spectrum disorders assessed as time spent in nose contacts at 10 mg/kg, ip pre-treated before open-field test for 10 mins; type: ADME, organism-based; conditions: in vivo
Mus musculus [11] = test: Effect on social interaction in Oprm1+/+ mouse model of autism spectrum disorders assessed as grooming episodes occurring after social contact at 10 mg/kg, ip pre-treated before open-field test for 10 mins; type: ADME, organism-based; conditions: in vivo
Mus musculus [12] = test: Effect on social interaction in Oprm1+/+ mouse model of autism spectrum disorders assessed as number of following episodes at 10 mg/kg, ip pre-treated before open-field test for 10 mins; type: ADME, organism-based; conditions: in vivo
[13] = Thermodynamic solubility in pH 7.4 buffer; type: physicochemical; conditions: read-out: Therm_solubility
Oxytocin receptor [14] = target: T3, Oxytocin receptor (Mus musculus, UniProt P97926); test: Agonist activity at mouse OTR receptor expressed in HEK293FT cells assessed as stimulation of calcium release by Aequorin based assay; type: functional, cell-based
T3 sequence (P97926 whole entry): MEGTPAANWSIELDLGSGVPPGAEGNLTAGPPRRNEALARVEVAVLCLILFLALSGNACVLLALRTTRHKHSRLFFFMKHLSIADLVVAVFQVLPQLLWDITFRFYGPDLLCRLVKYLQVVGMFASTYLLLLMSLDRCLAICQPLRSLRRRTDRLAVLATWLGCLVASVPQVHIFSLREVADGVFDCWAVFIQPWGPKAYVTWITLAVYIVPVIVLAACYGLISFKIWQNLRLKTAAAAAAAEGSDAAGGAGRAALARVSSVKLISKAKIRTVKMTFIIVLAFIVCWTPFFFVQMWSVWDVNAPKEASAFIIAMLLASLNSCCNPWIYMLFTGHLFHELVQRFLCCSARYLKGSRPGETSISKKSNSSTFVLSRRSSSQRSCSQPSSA

[15] = target: T4, Oxytocin receptor (Mus musculus) (UniProt P97926); test: Agonist activity at mouse OTR receptor expressed in HEK293FT cells assessed as stimulation of calcium release by Aequorin based assay relative to OT; type: functional, cell-based
T4 sequence (whole entry): T3 sequence (P97926 whole entry)

Vasopressin V2 receptor [16] = target: T1, Vasopressin V2 receptor; test: Agonist activity at human V2 receptor expressed in HEK293FT cells assessed as stimulation of calcium release by Aequorin based assay relative to AVP; type: functional, cell-based
Oxytocin receptor [17] = target: T5, Oxytocin receptor (Homo sapiens, UniProt P30559); test: Agonist activity at human OTR receptor expressed in HEK293FT cells incubated for 30 mins by beta-arrestin recruitment assay; type: functional, cell-based
T5 sequence (P30559 whole entry): T2 sequence (whole entry)

Vasopressin V2 receptor [18] = target: T1, Vasopressin V2 receptor; test: Agonist activity at human V2 receptor expressed in HEK293FT cells incubated for 30 mins by beta-arrestin recruitment assay relative to AVP; type: functional, cell-based
Vasopressin V1a receptor [19] = target: T6, Vasopressin V1a receptor (Homo sapiens, UniProt P37288); test: Antagonist activity at human V1a receptor expressed in HEK293FT cells assessed as inhibition of AVP-induced response incubated for 30 mins by beta-arrestin recruitment assay; type: functional, cell-based
Vasopressin V1b receptor [20] = target: T7, Vasopressin V1b receptor (Homo sapiens, UniProt P47901); test: Antagonist activity at human V1b receptor expressed in HEK293FT cells assessed as inhibition of AVP-induced response incubated for 30 mins by beta-arrestin recruitment assay; type: functional, cell-based
T7 sequence (P47901 whole entry): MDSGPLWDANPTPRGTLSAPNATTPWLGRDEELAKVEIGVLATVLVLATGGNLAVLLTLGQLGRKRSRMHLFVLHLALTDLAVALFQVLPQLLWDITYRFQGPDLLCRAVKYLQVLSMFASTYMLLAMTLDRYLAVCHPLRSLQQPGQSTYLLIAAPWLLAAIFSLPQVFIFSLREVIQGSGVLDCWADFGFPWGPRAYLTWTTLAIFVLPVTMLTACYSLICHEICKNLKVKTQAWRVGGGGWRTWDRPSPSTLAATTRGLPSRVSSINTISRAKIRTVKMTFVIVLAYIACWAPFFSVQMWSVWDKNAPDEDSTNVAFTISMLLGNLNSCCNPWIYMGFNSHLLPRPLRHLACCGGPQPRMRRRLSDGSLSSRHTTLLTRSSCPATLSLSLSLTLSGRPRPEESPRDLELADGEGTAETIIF

Vasopressin V1b receptor [21] = target: T7, Vasopressin V1b receptor
Description: Agonist activity at human V1b receptor expressed in HEK293FT cells assessed as stimulation of calcium release by Aequorin based assay

Vasopressin V1a receptor [22] = target: T6, Vasopressin V1a receptor
Description: Agonist activity at human V1a receptor expressed in HEK293FT cells incubated for 30 mins by beta-arrestin recruitment assay

Vasopressin V1b receptor [23] = target: T7, Vasopressin V1b receptor; remark: listed apart in the source
Description: Agonist activity at human V1b receptor expressed in HEK293FT cells incubated for 30 mins by beta-arrestin recruitment assay

T1 sequence (P30518 whole entry): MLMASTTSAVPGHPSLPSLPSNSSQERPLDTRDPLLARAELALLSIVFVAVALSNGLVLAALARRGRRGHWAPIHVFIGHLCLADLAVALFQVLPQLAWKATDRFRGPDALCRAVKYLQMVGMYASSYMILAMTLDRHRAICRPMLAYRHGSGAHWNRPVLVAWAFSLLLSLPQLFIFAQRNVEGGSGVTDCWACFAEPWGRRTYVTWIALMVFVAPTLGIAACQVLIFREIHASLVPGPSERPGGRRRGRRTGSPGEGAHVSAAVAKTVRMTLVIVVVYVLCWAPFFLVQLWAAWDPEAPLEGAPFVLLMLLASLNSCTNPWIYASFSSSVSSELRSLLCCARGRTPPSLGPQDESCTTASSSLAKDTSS
T6 sequence (P37288 whole entry): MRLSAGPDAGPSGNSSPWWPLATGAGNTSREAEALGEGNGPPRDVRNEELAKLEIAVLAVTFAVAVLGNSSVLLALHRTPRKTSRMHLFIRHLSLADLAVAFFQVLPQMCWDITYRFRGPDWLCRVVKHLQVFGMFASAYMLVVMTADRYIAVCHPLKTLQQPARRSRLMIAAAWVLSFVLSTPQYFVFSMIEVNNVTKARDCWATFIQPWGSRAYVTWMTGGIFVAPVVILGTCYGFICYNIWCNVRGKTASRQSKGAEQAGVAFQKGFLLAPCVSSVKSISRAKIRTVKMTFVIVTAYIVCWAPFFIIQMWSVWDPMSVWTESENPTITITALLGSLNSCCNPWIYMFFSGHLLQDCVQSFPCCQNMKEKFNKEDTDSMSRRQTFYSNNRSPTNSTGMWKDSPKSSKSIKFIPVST

Cc1cc(C(=O)N2Cc3cnn(C)c3Nc3ccccc32)ccc1CNC(=O)N1CCC[C@H]1C(=S)N(C)C
Ki (Vasopressin V2 receptor [1]): 1.67 µM
Emax [2]: 52%
Activity (Mus musculus [3]): Active
Activity (Mus musculus [4]): Active
Activity (Mus musculus [5]): Toxic
Activity (Mus musculus [6]): Toxic
Activity (Mus musculus [7]): inactive
Activity (Mus musculus [8]): inactive
Activity (Mus musculus [9]): inactive
Activity (Mus musculus [10]): Toxic
Activity (Mus musculus [11]): Toxic
Activity (Mus musculus [12]): Toxic
solubility thermodynamic [13]: 680 µM (≈ 362 µg/mL)
EC50 (Oxytocin receptor [14]): 0.018 µM
Emax [15]: 96%
Emax (Vasopressin V2 receptor [16]): 101%
EC50 (Oxytocin receptor [17]): 0.062 µM
Emax (Vasopressin V2 receptor [18]): 97%
IC50 (Vasopressin V1a receptor [19]): 2.2 µM
IC50 (Vasopressin V1b receptor [20]): Not Active
EC50 (Vasopressin V1b receptor [21]): Not Active
IC50 (Vasopressin V1a receptor [22]): Not Active
EC50 (Vasopressin V1b receptor [23]): Not Active
